Consider 20 compounds from PMC7787731, “Synthesis and Characterization of New Dihydronaphthalene Candidates as Potent Cytotoxic Agents against MCF-7 Human Cancer Cells” (BioMed Research International, 2020).

Where two headings read alike, the source gives them in different places.

Data set [1] relates to normal epithelial breast cells (MCF10A). The experiment in a line: In vitro cytotoxicity MTT assay against normal breast MCF10A cells. It is filed as cell-based. The settings on record: for IC50: Homo sapiens, MCF-10A, MTT assay, normal breast cell line, mean ± SD of three replicates. The source says: Statistical significance was defined when p < 0.05.
In general terms: Tetrazolium dyes change colour on reduction, which living cells bring about.

Data set [2] has as its system MCF-7 (human breast adenocarcinoma) cell lines. The experiment in a line: In vitro cytotoxicity MTT assay against breast cancer MCF-7 cells.
Protocol: Both MCF-7 and MCF10A cells were purchased from American Type Culture Collection (ATCC). Cells were grown in DMEM culture medium (Invitrogen/Life Technologies) supplemented with 10% FBS (Hyclone, USA), 10 μg/mL insulin (Sigma), and 1% penicillin-streptomycin antibiotic solution. Chemicals used were of cell culture grade and were purchased from Sigma or Invitrogen. Prior to the assay, cells (cells density 1.2–1.8 × 10,000 cells/well) were plated in 96-well plate with 100 μL medium and were allowed to grow for 24 h.
In vitro cytotoxic activity of the prepared compounds against breast (MCF-7) cancer cells was assessed using MTT assay [24, 25]. The assay depends on the mitochondrial reduction of the colorless 3-(4,5-methyl-2-thiazolyl)-2,5-diphenyl-2H-tetrazolium bromide (MTT) within viable cells into a dark blue formazan product. […] The supernatant was taken away from each well, and 100 μL of DMSO was added to each well to dissolve the formazan crystals. After mixing with a mechanical plate mixer, a microplate reader was used to measure the absorbance of each well at a wavelength of 570 nm. […] IC50 values were calculated from the linear regression of the corresponding calibration curves using the Origin® 6.1 software.
Results were analyzed with the help of SPSS 9.0 and were presented as mean ± SD of three replicates. The mean comparison between different evaluated groups was performed using ANOVA one-way analysis of variance. Statistical significance was defined when p < 0.05.
Where [3] appears, read: Homo sapiens, MCF7, 72 h, read-out: IC50 (μM) MCF-7, MTT assay, 0.39-100 μM, 3 days, mean ± SD of three replicates.

For `COc1ccc2c(c1)CCCC2=Nn1c2c(sc1=Nc1ccc(Br)cc1)C(c1ccc([N+](=O)[O-])cc1)C(C#N)=C(N)O2` (stereo not drawn) [Compound 5b, 5-Amino-2-((4-bromophenyl)imino)-3-((6-methoxy-3,4-dihydronaphthalen-1(2H)-ylidene)amino)-7-(4-nitrophenyl)-3,7-dihydro-2H-pyrano [2,3-d]thiazole-6-carbonitrile], the melting point (in general, the temperature of the solid-liquid transition) came to 213 °C.

`COc1ccc(C2C(C#N)=C(N)Oc3c2sc(=Nc2ccc(Br)cc2)n3N=C2CCCc3cc(OC)ccc32)cc1` (stereo not drawn) [Compound 5a, 5-Amino-2-((4-bromophenyl)imino)-3-((6-methoxy-3,4-dihydronaphthalen-1(2H)-ylidene)amino)-7-(4-methoxyphenyl)-3,7-dihydro-2H-pyrano [2,3-d]thiazole-6-carbonitrile] registered a melting point of 247 °C. Besides, the IC50 (usually the midpoint of a concentration-inhibition curve) in data set [1] was determined as 17.2 ± 0.44 µM. Further, in data set [1] (compared with Saturosporin as worded), the “less toxic than Saturosporin towards MCF01A normal cells” value was “about 18.45 folds”. Besides, the IC50 in data set [2] (setting [3]) was 0.93 ± 0.02 µM.

Consider `COc1ccc(C2C(C#N)=C(N)Oc3c2sc(=Nc2ccc(Oc4ccccc4)cc2)n3N=C2CCCc3cc(OC)ccc32)cc1` (stereo not drawn) [Compound 5d, 5-Amino-3-((6-methoxy-3,4-dihydronaphthalen-1(2H)-ylidene)amino)-7-(4-methoxyphenyl) -2-((4-phenoxyphenyl)imino)--3,7-dihydro-2H-pyrano [2,3-d]thiazole-6-carbonitrile], for which the melting point worked out at 209 °C. The compound also yielded an IC50 in data set [1] of 16.3 ± 0.42 µM. In data set [2] (setting [3]), the concentration for half-maximal inhibition (IC50) was 1.76 ± 0.04 µM.

For the compound `CCNC(=S)NN=C1CCCc2cc(OC)ccc21` [Compound 3d, N-(4-Ethyl)-2-(6-methoxy-3,4-dihydronaphthalen-1(2H)-ylidene)hydrazine-1-carbothioamide], the melting point was in the range of 150 to 153 °C. This compound showed an IC50 in data set [1] of 19.7 ± 0.51 µM. Further, in data set [2] (setting [3]), the IC50 is 3.73 ± 0.09 µM.

The compound `COc1ccc2c(c1)CCCC2=Nn1c2c(sc1=Nc1ccc(Oc3ccccc3)cc1)C(c1ccc([N+](=O)[O-])cc1)C(C#N)=C(N)O2` (stereo not drawn) [Compound 5e, 5-Amino-3-((6-methoxy-3,4-dihydronaphthalen-1(2H)-ylidene)amino)-7-(4-nitrophenyl)-2-((4-phenoxyphenyl)imino)--3,7-dihydro-2H-pyrano [2,3-d]thiazole-6-carbonitrile] came in with a melting point of 223 °C. Moreover, it took 14.1 ± 0.36 µM to reach half-maximal inhibition in data set [1] (IC50). Also, the IC50 in data set [2] (setting [3]) amounted to 2.36 ± 0.06 µM.

On to `COc1ccc2c(c1)CCCC2=NNC(=S)Nc1ccc(F)cc1` [Compound 3b, N-(4-Fluorophenyl)-2-(6-methoxy-3,4-dihydronaphthalen-1(2H)-ylidene)hydrazine-1-carbo thioamide], for which the melting point is 154 to 156 °C.

`COc1ccc2c(c1)CCCC2=Nn1c(=Nc2ccc(Br)cc2)sc2cc(C#N)c(=O)[nH]c21` [Compound 9, 2-((4-Bromophenyl)imino)-3-((6-methoxy-3,4-dihydronaphthalen-1(2H)-ylidene)amino)-5-oxo-2,3,4,5-tetrahydrothiazolo [4,5-b]pyridine-6-carbonitrile] gave a melting point of 224 °C.

For the compound `COc1ccc2c(c1)CCCC2=NN1C(=O)CSC1=Nc1ccc(Br)cc1` [Compound 4a, 2-((4-Bromophenyl)imino)-3-((6-methoxy-3,4-dihydronaphthalen-1(2H)-ylidene)amino) thiazolidin-4-one], the melting point amounted to 183 °C. The same compound showed an IC50 in data set [1] of 68 ± 0.86 µM. Moreover, in data set [2] (setting [3]), the IC50 turned out to be 28.6 ± 0.74 µM.

The compound `COc1ccc2c(c1)CCCC2=NN1C(=O)CSC1=Nc1ccc(Oc2ccccc2)cc1` [Compound 4c, 3-((6-Methoxy-3,4-dihydronaphthalen-1(2H)-ylidene)amino)-2-((4-phenoxyphenyl)imino) thiazolidin-4-one] returned a melting point of 171 °C.

As for `COc1ccc2c(c1)CCCC2=NNC(=S)Nc1ccc(Oc2ccccc2)cc1` [Compound 3c, 2-(6-Methoxy-3,4-dihydronaphthalen-1(2H)-ylidene)-N-(4-phenoxyphenyl)-hydrazine-1-carbo thioamide], the melting point worked out at 171 °C.

As to `CCN=C1SCC(=O)N1N=C1CCCc2cc(OC)ccc21` [Compound 4d, 2-(Ethylimino)-3-((6-methoxy-3,4-dihydronaphthalen-1(2H)-ylidene)amino)thiazolidin-4-one], the melting point was 117 °C. The compound further had an IC50 in data set [1] of 30.7 ± 0.53 µM. The IC50 in data set [2] (setting [3]) came out at 10.1 ± 0.26 µM.

For the compound `CCOC(=O)c1cc2sc(=Nc3ccc(Br)cc3)n(N=C3CCCc4cc(OC)ccc43)c2nc1C` [Compound 7, Ethyl-2-((4-bromophenyl)imino)-3-((6-methoxy-3,4-dihydronaphthalen-1(2H)-ylidene)amino)-5-methyl-2,3-dihydrothiazolo [4,5-b]pyridine-6-carboxylate], the melting point was found to be 90 °C.

For `COc1ccc2c(c1)CCC/C2=N\n1/c(=N/c2ccc(Br)cc2)sc2cc(C(C)=O)c(C)nc21` [Compound 8], the melting point was 128 °C. Moreover, the IC50 in data set [1] turned out to be 43.7 ± 0.59 µM. For the same compound, the IC50 in data set [2] (setting [3]) was 20 µM. Besides, the IC50 in data set [2] (read-out: IC50 (μM) MCF-7, MTT assay, 0.39-100 μM, 3 days, mean ± SD of three replicates) was 20 ± 0.52 µM.

`COc1ccc2c(c1)CCCC2=NN1C(=O)C(=CNc2nc3ccccc3[nH]2)SC1=Nc1ccc(Br)cc1` [Compound 11, 5-((1H-Benzo [d]imidazol-2-ylamino)methylene)-2-(4-bromophenylimino)-3-((6-methoxy-3,4-dihydronaphthalen-1(2H)-ylidene)amino)thiazolidin-4-one] returned a melting point of 220 °C.

In turn, `COc1ccc2c(c1)CCCC2=NNC(=S)Nc1ccc(Br)cc1` [Compound 3a, N-(4-Bromophenyl)-2-(6-methoxy-3,4-dihydronaphthalen-1(2H)-ylidene)hydrazine-1-carbo thioamide] returned a melting point of 191 to 193 °C. This compound returned an IC50 in data set [1] of 35.4 ± 0.64 µM. Also, the IC50 in data set [2] (setting [3]) worked out at 12.7 ± 0.33 µM. Also, in data set [2] (MCF-7, N-4-bromophenyl versus N-ethyl substitution), the “decrease in cytotoxicity relative to N-ethyl thiourea derivative 3d” value was “more than 3 times”.

`COc1ccc2c(c1)CCCC2=NN1C(=O)C(=CN(C)C)SC1=Nc1ccc(Br)cc1` [Compound 6, 2-((4-Bromophenyl)imino)-5-((dimethylamino)methylene)-3-((6-methoxy-3,4-dihydronaphthalene-1(2H)-ylidene)amino)thiazolidin-4-one] had a melting point of 236 °C. The compound further gave an IC50 in data set [1] of 17.78 ± 0.16 µM. Moreover, the IC50 in data set [2] (setting [3]) worked out at 7.48 ± 0.19 µM.

`COc1ccc2c(c1)CCCC2=NN1C(=O)C(=CNc2nccs2)SC1=Nc1ccc(Br)cc1` [Compound 12, 2-(4-Bromophenylimino)-3-((6-methoxy-3,4-dihydronaphthalen-1(2H)-ylidene)amino)-5-((thiazol-2-ylamino)methylene)thiazolidin-4-one]: the melting point turned out to be 152 °C.

`COc1ccc2c(c1)CCCC2=Nn1c(=Nc2ccc(Br)cc2)sc2cc(C#N)c(=S)[nH]c21` [Compound 10, 2-((4-Bromophenyl)imino)-3-((6-methoxy-3,4-dihydronaphthalen-1(2H)-ylidene)amino)-5-thioxo-2,3,4,5-tetrahydrothiazolo [4,5-b]pyridine-6-carbonitrile] returned a melting point of 286 °C. In addition, it took 15 ± 0.39 µM to reach half-maximal inhibition in data set [1] (IC50). For the same compound, in data set [2] (setting [3]), the IC50 was 2.83 ± 0.07 µM.

The compound `COc1ccc2c(c1)CCCC2=Nn1c2c(sc1=Nc1ccc(Oc3ccccc3)cc1)C(c1ccco1)C(C#N)=C(N)O2` (stereo not drawn) [Compound 5f, 5-Amino-7-(furan-2-yl)-3-((6-methoxy-3,4-dihydronaphthalen-1(2H)-ylidene)amino)-2-((4-phenoxyphenyl)imino)-3,7-dihydro-2H-pyrano [2,3-d]thiazole-6-carbonitrile] had a melting point of 280 °C.

In turn, `COc1ccc2c(c1)CCCC2=NN1C(=O)CSC1=Nc1ccc(F)cc1` [Compound 4b, 2-((4-Fluorophenyl)imino)-3-((6-methoxy-3,4-dihydronaphthalen-1(2H)-ylidene)amino) thiazolidin-4-one] showed a melting point of 190 °C. The compound also yielded an IC50 in data set [1] of 29.2 ± 0.36 µM. In addition, in data set [2] (setting [3]), the IC50 came out at 10.2 ± 0.26 µM.
